According to ChEMBL document CHEMBL6078698, “Discovery of 6-Fluoro-5-{4-[(5-fluoro-2-methyl-3-oxo-3,4-dihydroquinoxalin-6-yl)methyl]piperazin-1-yl}-N-methylpyridine-2-carboxamide (AZD9574): A CNS-Penetrant, PARP1-Selective Inhibitor” (J Med Chem, 2024):
Values after ≈ are worked out from the molar mass of the structure shown. Blank lines part the entries; values can stand above or below the compound they belong to.

Assays:
[1] = Lipophilicity, log D of compound at pH 7.4; assay type: physicochemical; conditions: buffer
[2] = Intrinsic clearance in human liver microsomes; assay type: ADME, Microsome; conditions: read-out: CLH
[3] = Solubility of compound at pH 7.4; assay type: physicochemical; conditions: buffer
[4] = biological target: Poly [ADP-ribose] polymerase 2 (Homo sapiens, UniProt Q9UGN5); assay: Inhibition of N-terminal 6His-tagged full-length recombinant human PARP2 by fluorescence anisotropy assay
[5] = Inhibition of cell proliferation of human DLD-1 cells expressing BRCA2-/- incubated for 7 days by Sytox green dye based analysis; assay type: functional; conditions: DLD-1, 168 h
MDR1 (P-gp), BCRP = assay: Efflux ratio in MDCK-MDR1-BCRP cells; assay type: ADME, cell-based, Canis lupus familiaris; conditions: dog
[6] = biological target: Poly [ADP-ribose] polymerase 1 (Homo sapiens, UniProt P09874); assay: Inhibition of N-terminal 6His-tagged full-length recombinant human PARP1 by fluorescence anisotropy assay
[7] = biological target: Voltage-gated inwardly rectifying potassium channel KCNH2 (Homo sapiens, UniProt Q12809); assay: (§1) Inhibition of hERG transfected in CHO cells by electrophysiology; assay type: toxicity, cell-based
[8] = Ratio of unbound drug concentration in brain to plasma of rat; assay type: ADME, cell-free; conditions: brain and plasma (unbound), read-out: K(p,uu,brain)
DLD-1 [9] = assay: Antitumor activity against human DLD-1 cells expressing BRCA2-/- xenografted in athymic nude Foxn1nu mouse at 100 mg/kg administered once daily for 28 days relative to control; assay type: functional; conditions: DLD-1, 672 h, time 28 day, read-out: TGI
hERG (KCNH2) = hERG (KCNH2) (Homo sapiens, UniProt Q12809); assay: as §1; assay type: toxicity, cell-based; conditions: human, CHO cells transfected with hERG
[10] = Half life in Han Wistar rat at 1 mg/kg, po or 1 mg/kg, iv; assay type: ADME, organism-based; conditions: in vivo
[11] = Volume of distribution at steady state in Beagle dog at 1 mg/kg, po or 1 mg/kg, iv; assay type: ADME, organism-based, Canis lupus familiaris; conditions: in vivo
[12] = Toxicity in mouse xenografted with human DLD-1 cells expressing BRCA2-/- assessed as drug tolerance at 3 to 30 mg/kg administered once daily for 5 weeks; assay type: organism-based; conditions: in vivo, 840 h, dose 3-30 mg/kg
[13] = Oral bioavailability in Han Wistar rat at 1 mg/kg; assay type: ADME, organism-based; conditions: in vivo
[14] = Half life in Beagle dog at 1 mg/kg, po or 1 mg/kg, iv; assay type: ADME, organism-based, Canis lupus familiaris; conditions: in vivo
[15] = Half life in CD-1 mouse at 1 mg/kg, po or 0.5 mg/kg, iv; assay type: ADME, organism-based; conditions: in vivo
[16] = Unbound fraction in CD-1 mouse plasma at 1 mg/kg, po or 0.5 mg/kg, iv; assay type: ADME, organism-based; conditions: in vivo
[17] = Volume of distribution at steady state in Han Wistar rat at 1 mg/kg, po or 1 mg/kg, iv; assay type: ADME, organism-based; conditions: in vivo
[18] = Oral bioavailability […] in CD-1 mouse at 1 mg/kg; assay type: ADME, organism-based; conditions: in vivo
[19] = Unbound fraction in Han Wistar rat plasma at 1 mg/kg, po or 1 mg/kg, iv; assay type: ADME, organism-based; conditions: in vivo
[20] = Half life in Cynomolgous monkey at 1 mg/kg, po or 0.5 mg/kg, iv; assay type: ADME, organism-based, Macaca fascicularis; conditions: cynomolgus monkey, in vivo
DLD-1 [21] = assay: Antitumor activity against human DLD-1 cells expressing BRCA2-/- xenografted in mouse at 3 mg/kg administered once daily for 5 weeks relative to control; assay type: functional; conditions: DLD-1, 840 h, read-out: TGI
[22] = Oral bioavailability in Cynomolgous monkey at 1 mg/kg; assay type: ADME, organism-based, Macaca fascicularis; conditions: cynomolgus monkey, in vivo
[23] = Volume of distribution at steady state in CD-1 mouse at 1 mg/kg, po or 0.5 mg/kg, iv; assay type: ADME, organism-based; conditions: in vivo
DLD-1 [24] = assay: Antitumor activity against human DLD-1 cells expressing BRCA2-/- xenografted in mouse at 30 mg/kg administered once daily for 5 weeks relative to control; assay type: functional; conditions: DLD-1, 840 h, read-out: TGI
[25] = Oral bioavailability in Beagle dog at 1 mg/kg; assay type: ADME, organism-based, Canis lupus familiaris; conditions: in vivo
[26] = Volume of distribution at steady state in Cynomolgous monkey at 1 mg/kg, po or 0.5 mg/kg, iv; assay type: ADME, organism-based, Macaca fascicularis; conditions: cynomolgus monkey, in vivo
DLD-1 [27] = assay: Antitumor activity against human DLD-1 cells expressing BRCA2-/- xenografted in mouse at 10 mg/kg administered once daily for 5 weeks relative to control; assay type: functional; conditions: DLD-1, 840 h, read-out: TGI
[28] = Unbound fraction in Cynomolgous monkey plasma at 1 mg/kg, po or 0.5 mg/kg, iv; assay type: ADME, organism-based, Macaca fascicularis; conditions: cynomolgus monkey, in vivo
[29] = Toxicity in mouse xenografted with human DLD-1 cells expressing BRCA2-/- assessed as body weight reduction at 3 to 30 mg/kg administered once daily for 5 weeks; assay type: organism-based; conditions: in vivo, 840 h, dose 3-30 mg/kg
[30] = Unbound fraction in Beagle dog plasma at 1 mg/kg, po or 1 mg/kg, iv; assay type: ADME, organism-based, Canis lupus familiaris; conditions: in vivo

Voltage-gated inwardly rectifying potassium channel KCNH2, sequence (Q12809 whole entry): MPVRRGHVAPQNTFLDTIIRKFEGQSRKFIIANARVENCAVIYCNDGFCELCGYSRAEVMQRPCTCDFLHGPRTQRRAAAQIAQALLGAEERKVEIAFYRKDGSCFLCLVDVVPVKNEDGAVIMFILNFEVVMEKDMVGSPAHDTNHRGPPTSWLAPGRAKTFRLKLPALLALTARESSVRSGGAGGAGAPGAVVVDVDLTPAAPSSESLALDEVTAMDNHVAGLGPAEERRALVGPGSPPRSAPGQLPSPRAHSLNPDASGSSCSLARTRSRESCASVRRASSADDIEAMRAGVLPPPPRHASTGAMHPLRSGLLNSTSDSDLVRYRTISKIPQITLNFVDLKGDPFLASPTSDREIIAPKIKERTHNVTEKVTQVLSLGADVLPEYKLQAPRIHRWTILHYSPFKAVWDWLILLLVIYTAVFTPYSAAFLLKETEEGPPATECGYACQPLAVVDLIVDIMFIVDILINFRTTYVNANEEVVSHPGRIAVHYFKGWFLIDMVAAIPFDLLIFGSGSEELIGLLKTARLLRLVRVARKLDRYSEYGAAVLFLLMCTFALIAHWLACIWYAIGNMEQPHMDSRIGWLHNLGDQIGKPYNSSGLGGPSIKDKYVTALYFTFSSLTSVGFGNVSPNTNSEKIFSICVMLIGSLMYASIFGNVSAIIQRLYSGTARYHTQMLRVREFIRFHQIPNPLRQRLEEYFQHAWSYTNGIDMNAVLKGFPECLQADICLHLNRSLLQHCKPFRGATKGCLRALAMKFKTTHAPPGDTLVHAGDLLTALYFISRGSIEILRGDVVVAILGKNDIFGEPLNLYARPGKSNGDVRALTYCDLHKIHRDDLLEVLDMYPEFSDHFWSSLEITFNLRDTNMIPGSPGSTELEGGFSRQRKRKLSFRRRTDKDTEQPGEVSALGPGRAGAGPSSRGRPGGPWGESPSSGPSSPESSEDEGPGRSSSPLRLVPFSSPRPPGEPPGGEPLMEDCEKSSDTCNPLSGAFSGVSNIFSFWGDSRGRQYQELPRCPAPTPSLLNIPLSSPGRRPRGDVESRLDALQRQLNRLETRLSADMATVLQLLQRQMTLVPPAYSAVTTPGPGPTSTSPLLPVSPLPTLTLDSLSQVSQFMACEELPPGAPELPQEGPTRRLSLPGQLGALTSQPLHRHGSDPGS
Poly [ADP-ribose] polymerase 1, sequence (P09874 whole entry): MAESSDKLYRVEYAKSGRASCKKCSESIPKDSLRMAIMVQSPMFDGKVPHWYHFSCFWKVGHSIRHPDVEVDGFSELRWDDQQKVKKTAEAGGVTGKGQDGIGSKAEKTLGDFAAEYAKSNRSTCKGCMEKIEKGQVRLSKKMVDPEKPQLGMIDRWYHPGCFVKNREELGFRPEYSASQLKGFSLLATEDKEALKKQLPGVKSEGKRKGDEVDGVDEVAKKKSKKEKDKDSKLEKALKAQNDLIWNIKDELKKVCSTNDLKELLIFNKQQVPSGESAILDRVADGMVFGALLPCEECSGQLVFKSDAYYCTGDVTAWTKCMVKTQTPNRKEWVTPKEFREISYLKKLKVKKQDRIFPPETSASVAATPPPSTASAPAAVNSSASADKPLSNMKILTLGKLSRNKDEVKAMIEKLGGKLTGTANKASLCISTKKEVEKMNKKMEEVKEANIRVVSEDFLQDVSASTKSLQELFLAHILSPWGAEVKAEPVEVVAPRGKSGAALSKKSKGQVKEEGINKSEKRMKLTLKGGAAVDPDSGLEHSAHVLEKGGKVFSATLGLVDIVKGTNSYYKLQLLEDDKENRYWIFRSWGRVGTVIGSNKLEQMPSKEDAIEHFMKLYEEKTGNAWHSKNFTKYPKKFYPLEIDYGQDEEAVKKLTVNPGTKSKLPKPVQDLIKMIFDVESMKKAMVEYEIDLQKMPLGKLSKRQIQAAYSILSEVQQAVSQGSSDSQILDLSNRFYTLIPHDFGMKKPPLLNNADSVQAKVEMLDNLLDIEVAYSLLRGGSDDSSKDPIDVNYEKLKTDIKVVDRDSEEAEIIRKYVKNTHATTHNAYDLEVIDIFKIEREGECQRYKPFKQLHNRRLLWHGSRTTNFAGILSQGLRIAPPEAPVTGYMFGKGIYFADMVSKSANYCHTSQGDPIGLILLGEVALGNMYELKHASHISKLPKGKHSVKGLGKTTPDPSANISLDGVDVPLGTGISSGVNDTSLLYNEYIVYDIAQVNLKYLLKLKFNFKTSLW
Poly [ADP-ribose] polymerase 2, sequence (Q9UGN5 whole entry): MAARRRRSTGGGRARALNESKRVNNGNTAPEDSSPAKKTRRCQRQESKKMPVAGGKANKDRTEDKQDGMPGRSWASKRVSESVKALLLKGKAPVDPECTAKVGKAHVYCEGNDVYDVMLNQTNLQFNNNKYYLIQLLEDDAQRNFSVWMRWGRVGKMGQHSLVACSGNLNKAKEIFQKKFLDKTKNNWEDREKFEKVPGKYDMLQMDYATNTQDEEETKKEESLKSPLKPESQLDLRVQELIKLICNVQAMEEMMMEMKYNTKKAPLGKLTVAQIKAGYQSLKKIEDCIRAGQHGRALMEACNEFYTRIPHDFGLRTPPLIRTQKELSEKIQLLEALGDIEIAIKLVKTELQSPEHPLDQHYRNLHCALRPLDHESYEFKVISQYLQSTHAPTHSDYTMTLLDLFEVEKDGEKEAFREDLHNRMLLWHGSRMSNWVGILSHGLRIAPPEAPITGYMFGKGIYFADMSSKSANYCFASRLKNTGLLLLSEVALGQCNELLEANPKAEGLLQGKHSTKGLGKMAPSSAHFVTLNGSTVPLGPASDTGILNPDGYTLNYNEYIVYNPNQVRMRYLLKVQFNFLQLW
hERG (KCNH2), sequence (Q12809 whole entry): as the sequence (Q12809 whole entry) above

logD [1]: 3.1
microsomal CLint [2]: < 3 µL/min/mg
solubility [3]: < 2 µM
IC50 [4]: > 100000 nM
Structure (SMILES): CCc1nc2ccc(CN3CCN(c4ccc(C(=O)NC)nc4F)CC3)c(C)c2[nH]c1=O
IC50 [5]: 12 nM

logD [1]: 3
microsomal CLint [2]: 10 µL/min/mg
solubility [3]: 8 µM (≈ 3.53 µg/mL)
efflux ratio (MDR1 (P-gp), BCRP): 6.7
Structure (SMILES): CCc1nc2ccc(CN3CCN(c4ccc(C(=O)NC)nc4Cl)CC3)cc2[nH]c1=O
IC50 [5]: 1 nM

logD [1]: 3.1
microsomal CLint [2]: 10 µL/min/mg
solubility [3]: 20 µM (≈ 9.18 µg/mL)
efflux ratio (MDR1 (P-gp), BCRP): 0.4
Structure (SMILES): CCc1nc2ccc(CN3CCN(c4ccc(C(=O)NC)nc4F)CC3)c(Cl)c2[nH]c1=O
IC50 (hERG (KCNH2)): > 40000 nM
IC50 [5]: 17 nM

logD [1]: 2.7
microsomal CLint [2]: 8 µL/min/mg
solubility [3]: 4 µM (≈ 1.7 µg/mL)
Kp uu [8]: 0.1
efflux ratio (MDR1 (P-gp), BCRP): 2
Structure (SMILES): CCc1nc2ccc(CN3CCN(c4ccc(C(=O)NC)nc4F)CC3)cc2[nH]c1=O
IC50 [5]: 1 nM

logD [1]: 3.3
microsomal CLint [2]: 13 µL/min/mg
solubility [3]: 30 µM (≈ 11.4 µg/mL)
Kp uu [8]: 0.36
efflux ratio (MDR1 (P-gp), BCRP): 1.3
IC50 [4]: 53000 nM
IC50 [6]: 5 nM
Structure (SMILES): CCc1nc2ccc(CN3CCN(c4ccc(F)nc4C)CC3)cc2[nH]c1=O
IC50 [7]: 11000 nM
IC50 [5]: 10 nM

Kp uu [8]: 0.05
Structure (SMILES): CCc1nc2ccc(CN3CCN(c4ccc(C(=O)NC)nc4)CC3)cc2[nH]c1=O

logD [1]: 2.1
microsomal CLint [2]: < 3 µL/min/mg
solubility [3]: 26 µM (≈ 10.7 µg/mL)
efflux ratio (MDR1 (P-gp), BCRP): 3.6
IC50 [4]: 26000 nM
IC50 [6]: 8 nM
Structure (SMILES): CNC(=O)c1ccc(N2CCN(Cc3ccc4nc(C)c(=O)[nH]c4c3)CC2)c(F)n1

Continued, compound first:

Structure (SMILES): CNC(=O)c1ccc(N2CCN(Cc3ccc4c5c(c(=O)[nH]c4c3)COCC5)CC2)cn1
logD [1]: 2
microsomal CLint [2]: 17 µL/min/mg
solubility [3]: 1 µM (≈ 0.434 µg/mL)
efflux ratio (MDR1 (P-gp), BCRP): 6.8
IC50 [4]: 690 nM
IC50 [6]: 4 nM
IC50 [7]: > 40000 nM

Structure (SMILES): O=C(c1cc(Cc2n[nH]c(=O)c3ccccc23)ccc1F)N1CCN(C(=O)C2CC2)CC1 [OLAPARIB]
Kp uu [8]: < 0.1
inhibition in vivo at 100 mg/kg (DLD-1 [9]): 40%

Structure (SMILES): CCc1cc2ccc(CN3CCN(c4cnc(C(=O)NC)cc4C)CC3)cc2[nH]c1=O
logD [1]: 3.3
microsomal CLint [2]: 33 µL/min/mg
solubility [3]: 3 µM (≈ 1.26 µg/mL)
IC50 [4]: 6300 nM
IC50 [6]: 6 nM
IC50 [7]: 8000 nM
IC50 [5]: 1140 nM

Structure (SMILES): CCc1cc2cnc(CN3CCN(c4ccc(C(=O)NC)nc4)CC3)cc2[nH]c1=O
IC50 [5]: 3 nM

Structure (SMILES): CNC(=O)c1ccc(N2CCN(Cc3ccc4nc(C)c(=O)[nH]c4c3F)CC2)c(F)n1 [AZD-9574]
half-life [10]: 6.3 h
Vdss [11]: 1.1 L/kg
Activity [12]: Non-toxic
logD [1]: 1.9
bioavailability [13]: 50%
half-life [14]: 12 h
half-life [15]: 4 h
Fu [16]: 20%
microsomal CLint [2]: < 3 µL/min/mg
Vdss [17]: 2.3 L/kg
bioavailability [18]: 116%
Fu [19]: 13%
half-life [20]: 10.5 h
solubility [3]: 19 µM (≈ 8.14 µg/mL)
inhibition in vivo at 3 mg/kg (DLD-1 [21]): 43%
bioavailability [22]: 95%
Kp uu [8]: 0.31
Vdss [23]: 2.7 L/kg
inhibition in vivo at 30 mg/kg (DLD-1 [24]): 69%
bioavailability [25]: 91%
Vdss [26]: 1.7 L/kg
IC50 (hERG (KCNH2)): > 40000 nM
IC50 [5]: 16 nM
inhibition in vivo at 10 mg/kg (DLD-1 [27]): 73%
Fu [28]: 16%
Activity [29]: Toxic
Fu [30]: 25%

Structure (SMILES): CCc1cc2ccc(CN3CCN(c4ccc(C(=O)NC)nc4C)CC3)cc2[nH]c1=O
logD [1]: 3.3
microsomal CLint [2]: 19 µL/min/mg
solubility [3]: 3 µM (≈ 1.26 µg/mL)
IC50 [4]: 1500 nM
IC50 [6]: 5 nM
IC50 [7]: 17000 nM
IC50 [5]: 2 nM
